Source: patent US9266813B2, “Stilbenoid compound as inhibitor for squamous carcinoma and hepatoma and uses thereof” (AnnCare Bio-Tech Center Inc., priority 2013, dated 2016)
≈ marks a conversion by molar mass, not a printed value. Where two headings read alike, the source gives them in different places.

Legend:
Hep3B cells = assay: MTT assay, antiproliferation on Hep3B cells; type: cell-based; details: for IC50: Homo sapiens, Hep3B cells, MTT
Procedure: (§1) Antiproliferations of compound 2-4 were determined by an improved MTT assay. The CAR cells were individually plated at a density of 2×10^4 cells/well onto 96-well plates and treated with Dimethyl sulfoxide (DMSO) alone (0.5% (v/v) in media served as a vehicle control) and various concentrations (0, 25, 50, 75 and 100 μM) of compound 2-4 for 24 and 48 hours. Following the above treatments, the supernatant was discarded before a 100 μL solution of MTT (500 μg/ml) was added to each well for 4 hours at 37 °C. After incubation, the medium was replaced by the addition of 200 μL DMSO to solubilize the violet formazan crystal produced from MTT. The absorbance of the dissolved formazan grained within the cells was measured at 570 nm by a microplate reader to calculate viability (data shown as % of control).
(§2) Please refer to Table 1. Hep3B cells and CAR cells were treated by different concentrations of the compounds of the invention for 48 and 72 hours, and the antiprolifieration effect of such compounds was evaluated using MTT assay. Data are presented as IC50 (μM), the concentration of 50% proliferation-inhibitory effect.
The anti-proliferative ability of compound 2-4 in hepatocellular carcinoma was evaluated in Hep3B cells using MTT assay. Hep3B cells were treated with various concentrations of compound 2-4 for 48 and 72 hours.

CAR cells = assay: MTT assay, antiproliferation on cisplatin-resistant head and neck squamous carcinoma (CAR) cells; type: cell-based, human; details: for IC50: Homo sapiens, CAR cells, MTT
Procedure: The human head and neck carcinoma cell line CAL27 was obtained from American Tissue Culture Collection (ATCC). The cisplatin-resistant cell line CAR (CAL27-cisplatin resistance) was established by clonal selection of CAL27 using 10 cycles of 1 passage treatment with 10-80 μM of cisplatin (Sigma-Aldrich Corp. (St. Louis, Mo., USA) followed by a recovery period of another passage. CAR cells were cultivated in Dulbecco's modified Eagle's medium (DMEM) supplemented with 10% FBS, 100 μg/mL streptomycin, 100 U/mL penicillin G, 2 mM L-glutamine (Gibco by Life Technologies (Carlsbad, Calif., USA)) and 80 μM of cisplatin (Sigma-Aldrich Corp. (St. Louis, Mo., USA).
as §1, §2
MTT assay was utilized and CAR cells were treated with compound 2-4 in different concentration for 24, 48 and 72 hours. […] The IC50 after 72 hours of treatment was 50 μM.

CAR xenograft = assay: Xenograft antitumor study in CAR xenograft nude mice; type: in vivo, BALB/c nude mice
Source text: All animal experiments of the invention complied with institutional guidelines (Affidavit of Approval of Animal Use Protocol) approved by the Institutional Animal Care and Use Committee (IACUC) of China Medical University (Taichung, Taiwan). All pathogen-free four-week-old male BALB/c nude mice were purchased from the National Laboratory Animal Center (Taipei, Taiwan). These animals were housed at a constant room temperature with a regular 12-hour light/12-hour dark cycle and hereafter fed a standard rodent diet and water ad libitum.
The CAR cells (1×10^7 cells/mouse) in 0.2 mL (1:1) cultural medium and Matrigel (BD Biosciences) were subcutaneously injected into the flank of nude mice. When xenograft tumors reached approximately 50 mm^3 (at day 22 after cell inoculation), thirty two mice were randomly divided into four groups with eight mice in each group. The experimental group were given oral treatments included compound 2-4 at the dosages of 25, 50 and 100 mg/kg body weight, respectively, using an everyday 30 times (dosing regimen: QD×30, p.o.); whereas control group were given orally with 30 μL of DMSO throughout the experimental period. The tumor size (mm^3) from each mouse was determined utilizing a caliper by calculating as 0.5×length×(width)^2. At the end of treatment, all animals were anaesthetized by carbon dioxide (CO2) and sacrificed on 31st day. The tumor tissues from each mouse were removed then measured and weighed individually as previously reported.
Compound 2-4 was evaluated in the CAR xenograft nude mice by oral route (p.o.) at dose of 25, 50, and 100 mg/kg/day in a schedule of QD×30. […] At the 100 mg/kg/day dose of compound 2-4, the weight of CAR tumor was reduced down to 22% that of the vehicle control (FIG. 5).

[1] = Biochemical analysis of blood of CAR xenograft mice after 30 days of treatment; type: in vivo, BALB/c nude mice
Procedure: All mice were monitored the relative toxicity of each group after the animals were sacrificed, and whole blood samples were drawn from the heart for biochemical measurements to evaluate the safety of compound 2-4. Briefly, blood was collected from each mouse and allowed to clot and centrifuged at 1000×g for 10 minutes at room temperature for further biochemical tests including total protein, albumin, creatinine, blood urea nitrogen (BUN), uric acid and glucose.
Furthermore, after 30 days of treatment, these mice were sacrificed and their blood samples were collected for biochemical quantification of total protein, albumin, creatinine, blood urea nitrogen, uric acid and glucose.

[2] = system: Human normal gingival fibroblasts cells (HGF); assay: MTT viability of normal gingival fibroblasts (HGF); type: cell-based; details: 0, 25, 50 and 100 μM, 72 hours, FIG. 7 (A)
Procedure: (§3) Human normal gingival fibroblasts cells (HGF) and human normal oral keratinocyte cells (OK) were acquired from Department of Dental Hygiene, China Medical University, Taiwan. HGF and OK were cultivated in DMEM.
(§4) Both HGF and OK cells (1×10^4 cells) were placed into a 96-well plate and were incubated with 0, 25, 50 and 100 μM of compound 2-4 for 24, 48 and 72 hours. For incubation with the autophagy inhibitor, cells were pretreated with […] (3-MA, 10 mM) for 1 hour, followed by treatment with or without compound 2-4 (50 and 75 μM) for 48 hours. After washing the cells, DMEM containing MTT (0.5 mg/mL) was added to detect viability. The cell viability was expressed as % of the control.
(§5) In FIG. 7, (A) indicates HGF cells and (B) indicates OK cells after exposure to various concentrations of compound 2-4 for 72 hours. The cell viability is determined by MTT assay and the data shown represent the mean±S.E.M (n=3).

[3] = system: human normal oral keratinocyte cells (OK); assay: MTT viability of normal oral keratinocytes (OK); type: cell-based; details: 0, 25, 50 and 100 μM, 72 hours, FIG. 7 (B)
Procedure: as §3, §4, §5

Water solubility assay = type: physicochemical; details: read-out: Water solubility, Content
Source text: The water solubility of the compounds of the present invention can be determined by methods known in the art and the result is shown in Table 3.

[4] = 25 mg/kg p.o. QD×30, mean ± S.E.M.
[5] = 50 mg/kg p.o. QD×30, mean ± S.E.M.
[6] = 100 mg/kg p.o. QD×30, mean ± S.E.M.

Compound: COc1cc(/C=C/c2ccc(OC(=O)C(C)(CO)CO)cc2)cc(OC)c1 [Compound 2-4, 4-(3,5-dimethoxystyryl)phenyl-3-hydroxy-2-(hydroxymethyl)-2-methylpropanoate]
- inhibition on cell viability in Hep3B cells (Hep3B cells; 48 and 72 hours, FIG. 2): concentration-dependent inhibition on cell viability
- anticancer activity compared with resveratrol and pterostilbene (Hep3B cells; Hep 3B and CAR cells, Table 1): more potent anticancer activity than resveratrol and pterostilbene
- IC50 (Hep3B cells; 48 hours, Example 19 text, read-out: IC50 after 48 hours of treatment (FIG. 2)): 50 µM
- IC50 (Hep3B cells; 48 hours, read-out: Hep 3B (IC50 (μM)) 48 hours): 63.5 µM
- IC50 (Hep3B cells; 72 hours, read-out: Hep 3B (IC50 (μM)) 72 hours): 43.8 µM
- antiproliferative effect on CAR cells (CAR cells; 24, 48 and 72 hours, FIG. 1): concentration- and time-dependent antiproliferative effect
- IC50 (CAR cells; 48 hours, read-out: CAR (IC50 (μM)) 48 hours): 73 µM
- IC50 (CAR cells; 72 hours, Example 18 text, read-out: IC50 after 72 hours of treatment (FIG. 1)): 50 µM
- IC50 (CAR cells; 72 hours, read-out: CAR (IC50 (μM)) 72 hours): 45.2 µM
- tumor growth suppression (CAR xenograft; p.o. 25 mg/kg/day, QD×30): Significant tumor growth suppression
- weight of CAR tumor relative to vehicle control (CAR xenograft; p.o. 100 mg/kg/day, QD×30, FIG. 5): 22%
- effect on CAR tumor weight (CAR xenograft; p.o. 25, 50, 100 mg/kg/day, QD×30, FIG. 5): dose-dependent inhibitory effect
- body weight change (CAR xenograft; p.o. 25, 50, 100 mg/kg/day, QD×30, FIG. 6): no significant body weight change
- effect on CAR tumor size (CAR xenograft; p.o. 25, 50, 100 mg/kg/day, QD×30, FIGS. 3 and 4): dose-dependent inhibitory effect
- Albumin [1, 4]: 3.666 ± 0.052 g/dL
- Blood urea nitrogen [1, 4]: 28.200 ± 5.784 mg/dL
- Creatinine [1, 4]: 1.133 ± 0.109 mg/dL
- Glucose [1, 4]: 181.333 ± 32.067 mg/dL
- Total Protein [1, 4]: 5.383 ± 0.117 g/dL
- Uric acid [1, 4]: 4.567 ± 0.784 mg/dL
- Albumin [1, 5]: 3.417 ± 0.075 g/dL
- Blood urea nitrogen [1, 5]: 30.950 ± 1.265 mg/dL
- Creatinine [1, 5]: 0.910 ± 0.077 mg/dL
- Glucose [1, 5]: 172.500 ± 6.504 mg/dL
- Total Protein [1, 5]: 5.583 ± 0.376 g/dL
- Uric acid [1, 5]: 5.450 ± 0.878 mg/dL
- Albumin [1, 6]: 3.400 ± 0.089 g/dL
- Blood urea nitrogen [1, 6]: 29.250 ± 3.855 mg/dL
- Creatinine [1, 6]: 0.830 ± 0.128 mg/dL
- Glucose [1, 6]: 196.500 ± 8.643 mg/dL
- Total Protein [1, 6]: 5.283 ± 0.194 g/dL
- Uric acid [1, 6]: 5.050 ± 1.882 mg/dL
- toxicity when orally administered ([1]; CAR xenograft mice, oral, 30 days): very low toxicity
- blood analysis result versus vehicle control mice ([1]; after 30 days of oral treatment, Table 2): no significant difference in blood analysis result
- cell viability of HGF cells [2]: no viability impact is observed
- cell viability of OK cells [3]: no viability impact is observed
- solubility (Water solubility assay): 18 µg/mL (≈ 48.3 µM)
